# Earlier results as cited in patent US8278040B2, “Optically responsive and mechanically tunable colloid-in-liquid crystal gels” (priority 2008, dated 2012).
# Test system: live cells
compound,measurement,setting,value
"CCCCCc1ccc(-c2ccc(C#N)cc2)cc1 [5CB, 4-cyano-4′-pentylbiphenyl]",toxicity to living cells (stated),"general statement, criteria of Luk et al.",cytotoxic
same,cell death on direct contact with live cells,placed into direct contact with live cells,cause cell death within a short time period
